The values that follow are results of earlier work, collected in publication PMC3076219 (European journal of immunology, 2009).

Series [1] has as its system CXCR2. The settings on record: indirect, inside-out signaling; ref [16]; cited from earlier work.
Series [2] has as its system CXCR1. The settings on record: indirect, inside-out signaling; ref [16]; cited from earlier work.

For TNFα, in series [1], the CXCR2 down-regulation result is “cause down-regulation of CXCR2 and CXCR1”. Also, in series [2], the CXCR1 down-regulation entry is “cause down-regulation of CXCR2 and CXCR1”.
